{
  "source": "patent US20260158102A1",
  "about": "“CYCLIC PEPTIDE DERIVATIVE COMPOSITION FOR TREATING OR PREVENTING NEUROPATHIC PAIN AND/OR INFLAMMATORY PAIN” (DKS Co. Ltd., priority 2022, published 2026)",
  "key": {"[1]": {"test_system": "STZ-induced diabetic rats", "test": "von Frey test in rat STZ-induced diabetes model", "assay_type": "in vivo", "conditions": "for 50% withdrawal threshold by von Frey test: mean ± SE, n=10", "protocol": "The activity of the compound of the present disclosure was evaluated according to the following procedure.\n(§1) Compound 9 (50 mg/mL) was diluted with water for injection to obtain a 1 mg/mL administration specimen. For the specimens to be administered at 0.1 mg/mL and 0.01 mg/mL, the specimen to be administered at 1 mg/mL was diluted stepwise with water for injection. Each administration specimen was divided into PP disposable tubes every day and stored in a storehouse (freezer: MDF-MU339H-PJ, PHC Corporation) under the condition of freezing (−30° C. to −20° C., measured value: −26.4 to −24.5° C.). Preparation was performed on the day before the start of administration.\n(§2) Water for injection was added to and dissolved in Pregabalin taken out from the capsule to obtain 2 mg/mL. It was prepared before use.\n(§3) • Animal species: rat (SPF) • Strain: Crl: CD (SD) • Date of animal acquisition, gender, age in weeks, number of animals acquired, and weight range after 1 day of acquisition • First and second courses: Apr. 6, 2022, male, 7 weeks old, 35 animals, 217 to 237 g • Third and fourth courses: Apr. 13, 2022, male, 7 weeks old, 35 animals, 216 to 235 g • Source: […].\nAmong the animals having a 50% withdrawal threshold of 8 g or more in the von Frey test measured during the preliminary breeding period, two animals from young animals with animal numbers were assigned to non-diabetes-induced animals, and the remaining animals were assigned to diabetes-induced animals.\nAmong the diabetes-induced animals, animals having a blood glucose level of 300 mg/dL or less were excluded from the grouping subjects, and were grouped using a computer program (IBUKI, Nihon Bioresearch Center, Inc.) so that the body weight and the average blood glucose level of each group were approximately equal. That is, the animals for the first and second courses and the third and fourth courses were grouped into one non-diabetes animal for Group 1, and 5 […] animals for Groups 2 to 6. Note that the grouping was performed so that there were 4 examples in Group 1 and 10 examples in each of Groups 2 to 6.\n• Administration method: Using a syringe (Terumo Corporation) equipped with a 25 G winged injection needle (Terumo Corporation), tail vein administration was performed. Note that a 0.75 mmol/L CAB solution was administered to a non-diabetes-induced control group.\n(§4) • Dose volume: calculated at 2 mL/kg based on the body weight on the day of administration. • Number of times of administration: once • Day of administration: 7 days before the day of starting administration of the test substance.\n• Administration method: Using a syringe (Terumo Corporation) equipped with a 25 G winged injection needle (Terumo Corporation), tail vein administration was performed. Note that physiological saline was administered to the non-diabetes control group and the diabetes control group.\n(§5) • Dose volume: calculated at 1 mL/kg based on the body weight on the day of administration. • Number of times of administration: 9 times • Interval of administration: once every 3 days (evaluation was performed on the day after administration) • Day of starting administration: day 8 of STZ administration (day of STZ administration is counted as day 1).\n• Administration method: Using a polypropylene disposable syringe (Terumo Corporation) equipped with a metal oral zonde for a rat (Fuchigami kikai Ltd.), forced oral administration was performed.\n• Dose volume: calculated at 10 mL/kg based on the body weight on the day of administration. • Number of times of administration: Administration was performed once on the day of evaluation of neuropathic pain, twice in total, and on the other days of administration, a vehicle for a control substance (water for injection) was orally administered. […]"}, "[2]": {"test": "Body weight measurement in rat STZ-induced diabetes model", "assay_type": "in vivo", "conditions": "20 mg/kg oral, mean ± SE, in g (unit assumed)", "protocol": "as §1, §2, §3, §4, §5\n• Dose volume: calculated at 10 mL/kg based on the body weight on the day of administration. • Number of times of administration: Administration was performed once on the day of evaluation of neuropathic pain, twice in total, and on the other days of administration, a vehicle for a control substance (water for injection) was orally administered.\n• Measurement was performed every day after the day of STZ administration.\nThe mean and standard error of each group were calculated for the 50% withdrawal threshold, body weight, and blood glucose level.\nThe body weight was an integer.\nNo significant difference test of body weight and blood glucose levels was performed."}},
  "data": [
    {"smiles": "CC(C)C[C@H](CN)CC(=O)O", "note": "[Pregabalin, reference compound]", "values": [
      {"measurement": "50% withdrawal threshold by von Frey test", "setting": "[1]; 20 mg/kg oral group, Pre: before STZ administration", "result": "12.7 ± 0.7", "unit": "g"},
      {"measurement": "50% withdrawal threshold by von Frey test", "setting": "[1]; 20 mg/kg oral, 3 hours after administration, day 14 of STZ administration", "result": "14.5 ± 0.5", "unit": "g"},
      {"measurement": "50% withdrawal threshold by von Frey test", "setting": "[1]; 20 mg/kg oral, 3 hours after administration, day 28 of STZ administration", "result": "14.1 ± 0.7", "unit": "g"},
      {"measurement": "change in the 50% withdrawal threshold (von Frey test)", "setting": "[1]; 20 mg/kg oral, both 14 days and 28 days after STZ administration, as compared with the diabetes control group", "result": "significant increase"},
      {"measurement": "Body weight", "setting": "[2]; day 1 of STZ administration", "result": "293 ± 5"},
      {"measurement": "Body weight", "setting": "[2]; day 2 of STZ administration", "result": "278 ± 5"},
      {"measurement": "Body weight", "setting": "[2]; day 3 of STZ administration", "result": "272 ± 5"},
      {"measurement": "Body weight", "setting": "[2]; day 4 of STZ administration", "result": "275 ± 4"},
      {"measurement": "Body weight", "setting": "[2]; day 5 of STZ administration", "result": "280 ± 4"},
      {"measurement": "Body weight", "setting": "[2]; day 6 of STZ administration", "result": "282 ± 4"},
      {"measurement": "Body weight", "setting": "[2]; day 7 of STZ administration", "result": "288 ± 4"},
      {"measurement": "Body weight", "setting": "[2]; day 8 of STZ administration", "result": "285 ± 4"},
      {"measurement": "Body weight", "setting": "[2]; day 9 of STZ administration", "result": "289 ± 4"},
      {"measurement": "Body weight", "setting": "[2]; day 10 of STZ administration", "result": "291 ± 5"},
      {"measurement": "Body weight", "setting": "[2]; day 11 of STZ administration", "result": "297 ± 4"},
      {"measurement": "Body weight", "setting": "[2]; day 12 of STZ administration", "result": "297 ± 5"},
      {"measurement": "Body weight", "setting": "[2]; day 13 of STZ administration", "result": "298 ± 5"},
      {"measurement": "Body weight", "setting": "[2]; day 14 of STZ administration", "result": "302 ± 6"},
      {"measurement": "Body weight", "setting": "[2]; day 15 of STZ administration", "result": "297 ± 4"},
      {"measurement": "Body weight", "setting": "[2]; day 16 of STZ administration", "result": "300 ± 5"},
      {"measurement": "Body weight", "setting": "[2]; day 17 of STZ administration", "result": "304 ± 5"},
      {"measurement": "Body weight", "setting": "[2]; day 18 of STZ administration", "result": "303 ± 5"},
      {"measurement": "Body weight", "setting": "[2]; day 19 of STZ administration", "result": "302 ± 6"},
      {"measurement": "Body weight", "setting": "[2]; day 20 of STZ administration", "result": "308 ± 5"},
      {"measurement": "Body weight", "setting": "[2]; day 21 of STZ administration", "result": "305 ± 6"},
      {"measurement": "Body weight", "setting": "[2]; day 22 of STZ administration", "result": "309 ± 5"},
      {"measurement": "Body weight", "setting": "[2]; day 23 of STZ administration", "result": "307 ± 7"},
      {"measurement": "Body weight", "setting": "[2]; day 24 of STZ administration", "result": "305 ± 7"},
      {"measurement": "Body weight", "setting": "[2]; day 25 of STZ administration", "result": "307 ± 6"},
      {"measurement": "Body weight", "setting": "[2]; day 26 of STZ administration", "result": "309 ± 6"},
      {"measurement": "Body weight", "setting": "[2]; day 27 of STZ administration", "result": "304 ± 7"},
      {"measurement": "Body weight", "setting": "[2]; day 28 of STZ administration", "result": "307 ± 7"},
      {"measurement": "Body weight", "setting": "[2]; day 29 of STZ administration", "result": "302 ± 7"},
      {"measurement": "Body weight", "setting": "[2]; day 30 of STZ administration", "result": "302 ± 7"},
      {"measurement": "Body weight", "setting": "[2]; day 31 of STZ administration", "result": "304 ± 8"},
      {"measurement": "Body weight", "setting": "[2]; day 32 of STZ administration", "result": "305 ± 8"},
      {"measurement": "Body weight", "setting": "[2]; day 33 of STZ administration", "result": "307 ± 8"},
      {"measurement": "Body weight", "setting": "[2]; day 34 of STZ administration", "result": "306 ± 7"},
      {"measurement": "Body weight", "setting": "[2]; day 35 of STZ administration", "result": "307 ± 7"}
    ]}
  ]
}
